Test results reported in patent EP4342530A1, “SORTILIN MODULATORS” (Insusense ApS, priority 2022, dated 2024).

Target: T1, h-Sortilin (Homo sapiens, UniProt Q99523)
T1 sequence (Q99523 78-831): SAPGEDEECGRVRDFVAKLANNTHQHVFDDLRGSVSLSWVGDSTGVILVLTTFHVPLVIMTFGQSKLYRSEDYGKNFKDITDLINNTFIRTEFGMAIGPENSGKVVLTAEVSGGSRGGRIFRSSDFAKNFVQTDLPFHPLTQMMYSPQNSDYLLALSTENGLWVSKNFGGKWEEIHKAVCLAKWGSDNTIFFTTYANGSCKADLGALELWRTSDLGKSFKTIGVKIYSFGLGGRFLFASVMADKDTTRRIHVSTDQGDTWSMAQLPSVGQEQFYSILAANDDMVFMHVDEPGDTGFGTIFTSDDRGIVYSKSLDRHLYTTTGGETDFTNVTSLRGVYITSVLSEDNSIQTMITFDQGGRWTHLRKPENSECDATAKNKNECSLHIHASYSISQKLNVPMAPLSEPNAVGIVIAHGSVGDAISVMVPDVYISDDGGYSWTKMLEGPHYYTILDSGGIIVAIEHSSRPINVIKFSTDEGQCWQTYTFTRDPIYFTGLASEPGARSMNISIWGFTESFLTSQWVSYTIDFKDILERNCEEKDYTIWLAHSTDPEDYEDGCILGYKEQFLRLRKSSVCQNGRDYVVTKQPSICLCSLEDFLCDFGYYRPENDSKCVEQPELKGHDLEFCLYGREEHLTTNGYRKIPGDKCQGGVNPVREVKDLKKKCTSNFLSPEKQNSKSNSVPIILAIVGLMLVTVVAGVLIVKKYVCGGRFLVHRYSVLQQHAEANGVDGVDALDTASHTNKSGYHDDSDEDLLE
Assay: Neurotensin scintillation proximity assay (displacement of [3H]-neurotensin binding)
Details: 150 nM 6his-Sortilin, 5 nM [3H]-Neurotensin; average of at least 2 determinations; read-out: IC50 [3H]Neurotensin SPA
Protocol: The exemplified compounds of the invention were tested in a Neurotensin (NTS) scintillation proximity assay (SPA). NTS, which is a 13 amino acid neuropeptide, is a sortilin ligand. The IC50 is a measure of the amount of the compound required to inhibit the binding of NTS to sortilin by 50%. The skilled person will recognise that the lower the IC50 value, the less of the compound needed to achieve the desired effect, and as a result, the chances of undesirable off-target effects are reduced.
Compound affinity was determined by measuring the displacement of [3H]-neurotensin binding to h-Sortilin in SPA format. Total volume of 40 µl in 50 mM HEPES pH 7.4 assay buffer containing 100 mM NaCl, 2.0 mM CaCl2, 0.1% BSA and 0.1% Tween-20. Compound pre-incubation for 30 minutes at room temperature with 150 nM of 6his-Sortilin before 5 nM [3H]-Neurotensin and Ni chelate imaging beads (Perkin Elmer) were added, after 6 hours the plate was read on a ViewLux with 360 s exposure time. Dose-response evaluation of compounds was performed with 8 concentrations of drugs (covering 3 decades). IC50 values were calculated by nonlinear regression using the sigmoid concentration-response (variable slope) using CDD Vault software. All values reported are average of at least 2 determinations.

CC(C)(C)CCC(N[C@@H](CCO)c1ccccc1)C(=O)O (mixture of isomers) [Example 39, 2-{[(1S)-3-hydroxy-1-phenylpropyl]amino}-5,5-dimethylhexanoic acid]
IC50: 410 nM

C[C@H](N[C@@H](CCC(C)(C)C)C(=O)O)c1ccc2c(c1)CCCC2 [Example 12]
IC50: 610 nM

CC(C)(C)CC[C@H](NCc1ccc2c(c1)CCNC2)C(=O)O [Example 15, (S)-5,5-dimethyl-2-(((1,2,3,4-tetrahydroisoquinolin-6-yl)methyl)amino)hexanoic acid]
IC50: 900 nM

CN1CCc2ccc(CN[C@@H](CCC(C)(C)C)C(=O)O)cc2C1 [Example 20, (2S)-5,5-dimethyl-2-{[(2-methyl-1,2,3,4-tetrahydroisoquinolin-7-yl)methyl]amino}hexanoic acid]
IC50: 470 nM

CN1CCc2ccc(CN[C@@H](CCC(C)(C)C)C(=O)O)cc2C1=O [Example 23, (2S)-5,5-dimethyl-2-{[(2-methyl-1-oxo-1,2,3,4-tetrahydroisoquinolin-7-yl)methyl]amino}hexanoic acid]
IC50: 430 nM

CN1CCc2cc(CN[C@@H](CCC(C)(C)C)C(=O)O)ccc2C1=O [Example 24, (2S)-5,5-dimethyl-2-{[(2-methyl-1-oxo-1,2,3,4-tetrahydroisoquinolin-6-yl)methyl]amino}hexanoic acid]
IC50: 630 nM

Cc1cc(CN[C@@H](CCC(C)(C)C)C(=O)O)cc2c1CCC2 [Example 26, (2S)-5,5-dimethyl-2-{[(7-methyl-2,3-dihydro-1H-inden-5-yl)methyl]amino}hexanoic acid]
IC50: 520 nM

CN1C(=O)CCc2cc(CN[C@@H](CCC(C)(C)C)C(=O)O)ccc21 [Example 27, (2S)-5,5-dimethyl-2-{[(1-methyl-2-oxo-1,2,3,4-tetrahydroquinolin-6-yl)methyl]amino}hexanoic acid]
IC50: 760 nM

CC(C)(C)CC[C@H](NCc1ccc2c(c1)NC(=O)CC2)C(=O)O [Example 29, (2S)-5,5-dimethyl-2-{[(2-oxo-1,2,3,4-tetrahydroquinolin-7-yl)methyl]amino}hexanoic acid]
IC50: 290 nM

CC(C)(C)CC[C@H](NCc1ccc2c(c1)CCC(=O)N2)C(=O)O [Example 31, (2S)-5,5-dimethyl-2-{[(2-oxo-1,2,3,4-tetrahydroquinolin-6-yl)methyl]amino}hexanoic acid]
IC50: 900 nM

CC(C)(C)CC[C@H](NCc1ccc2c(c1)N(C(=O)OC(C)(C)C)CCC2)C(=O)O [Example 32, (2S)-2-[({1-[(tert-butoxy)carbonyl]-1,2,3,4-tetrahydroquinolin-7-yl}methyl)amino]-5,5-dimethylhexanoic acid]
IC50: 130 nM

CC(C)(C)CC[C@H](NCc1cccc(-n2cncn2)c1)C(=O)O [Example 35, (2S)-5,5-dimethyl-2-({[3-(1H-1,2,4-triazol-1-yl)phenyl]methyl}amino)hexanoic acid]
IC50: 960 nM

CC(C)(C)CC[C@H](NCc1ccc(Oc2ccccc2)cc1)C(=O)O [Example 36]
IC50: 520 nM

CN(C)c1cccc(CN[C@@H](CCC(C)(C)C)C(=O)O)c1 [Example 37, (2S)-2-({[3-(dimethylamino)phenyl]methyl}amino)-5,5-dimethylhexanoic acid]
IC50: 570 nM

CC(C)(C)CC[C@H](N[C@H](CCO)c1ccccc1)C(=O)O [Example 40, (2S)-2-{[(1R)-3-hydroxy-1-phenylpropyl]amino}-5,5-dimethylhexanoic acid]
IC50: 6450 nM

COc1cccc([C@H](CCO)N[C@@H](CCC(C)(C)C)C(=O)O)c1 [Example 41]
IC50: 760 nM

COc1cccc([C@@H](CCO)N[C@@H](CCC(C)(C)C)C(=O)O)c1 [Example 42]
IC50: 590 nM

CC(C)(C)CC[C@H](NCc1cnc2c(c1)CCCO2)C(=O)O [Example 53]
IC50: 580 nM

Cc1cc(CN[C@@H](CCC(C)(C)C)C(=O)O)cc2c1CCCO2 [Example 55]
IC50: 310 nM

C[C@H](N[C@@H](CCC(C)(C)C)C(=O)O)c1ccc2c(c1)OCCC2 [Example 57]
IC50: 300 nM

CC(C)(C)CC[C@H](NCc1cnc2c(c1)OCCO2)C(=O)O [Example 60]
IC50: 820 nM

CC(C)(C)CC[C@H](NCc1ccc2c(c1)OCC2)C(=O)O [Example 62]
IC50: 430 nM

CC(C)(C)CC[C@H](NCc1cccc2c1CCOC2)C(=O)O [Example 63]
IC50: 650 nM

C[C@@H](N[C@@H](CCC(C)(C)C)C(=O)O)c1ccc2c(c1)COCC2 [Example 64]
IC50: 420 nM

CC(C)(C)CC[C@H](NCc1cccc2c1COC2)C(=O)O [Example 65]
IC50: 620 nM

CC(C)(C)CC[C@H](NCc1ccc2c(c1)CCO2)C(=O)O [Example 66]
IC50: 700 nM

CC(C)(C)CC[C@H](NCc1cccc2c1COCC2)C(=O)O [Example 67]
IC50: 500 nM

C[C@H](N[C@@H](CCC(C)(C)C)C(=O)O)c1ccc2c(c1)COCC2 [Example 69]
IC50: 590 nM

C[C@H](N[C@@H](CCC(C)(C)C)C(=O)O)c1cccc2c1OCCO2 [Example 73]
IC50: 650 nM

CC(C)(C)CC[C@H](NCc1cccc2c1CCC2)C(=O)O [Example 74]
IC50: 850 nM

C[C@@H](N[C@@H](CCC(C)(C)C)C(=O)O)c1cccc2c1OCCO2 [Example 75]
IC50: 1220 nM

CC(C)(C)CC[C@H](NCc1cccc(N2CCCC2)c1)C(=O)O [Example 77]
IC50: 350 nM
